# ChEMBL document CHEMBL1909281, “FDA-approved drug labeling for the study of drug-induced liver injury” (Drug Discov Today, 2011)
# System: Hepatotoxicity
# Assay: FDA Liver Toxicity Knowledge Base Benchmark Dataset (LTKB-BD) drugs of most concern for DILI
# Conditions: not given
row,SMILES,LTKB_BD DILI severity score
1,COc1cc(C(=O)NS(=O)(=O)c2ccccc2C)ccc1Cc1cn(C)c2ccc(NC(=O)OC3CCCC3)cc12 [ZAFIRLUKAST],8
2,NC(=O)NO [HYDROXYUREA],8
3,Cc1cn([C@H]2C=C[C@@H](CO)O2)c(=O)[nH]c1=O [STAVUDINE],8
4,CN(C)/N=N/c1[nH]cnc1C(N)=O [DACARBAZINE],6
5,CC(O)(CS(=O)(=O)c1ccc(F)cc1)C(=O)Nc1ccc(C#N)c(C(F)(F)F)c1 (configuration not stated) [BICALUTAMIDE],8
6,C#C[C@]1(O)CC[C@H]2[C@@H]3CCC4=Cc5oncc5C[C@]4(C)[C@H]3CC[C@@]21C [DANAZOL],8
7,C[C@]12COC(=O)C[C@@H]1CC[C@@H]1[C@@H]2CC[C@@]2(C)[C@H]1CC[C@]2(C)O [OXANDROLONE],8
8,CC(C(=O)O)c1cccc(Oc2ccccc2)c1 (configuration not stated) [FENOPROFEN],8
9,O=C1CN(/N=C/c2ccc(-c3ccc([N+](=O)[O-])cc3)o2)C(O)=N1 [DANTROLENE],8
10,Cc1cn([C@H]2C[C@H](N=[N+]=[N-])[C@@H](CO)O2)c(=O)[nH]c1=O [ZIDOVUDINE],8
11,CCc1cccc2c3c([nH]c12)C(CC)(CC(=O)O)OCC3 (configuration not stated) [ETODOLAC],8
12,CC(=O)N1CCN(c2ccc(OCC3COC(Cn4ccnc4)(c4ccc(Cl)cc4Cl)O3)cc2)CC1 (configuration not stated) [KETOCONAZOLE],8
13,CCc1nn(CCCN2CCN(c3cccc(Cl)c3)CC2)c(=O)n1CCOc1ccccc1 [NEFAZODONE],8
14,C[C@H]1O[C@H](O[C@H]2[C@H](O)[C@@H](O)[C@@H](O[C@H]3[C@H](O)[C@@H](O)C(O)O[C@@H]3CO)O[C@@H]2CO)[C@H](O)[C@@H](O)[C@@H]1N[C@H]1C=C(CO)[C@@H](O)[C@H](O)[C@H]1O (some centres not stated) [ACARBOSE],5
15,CN(N=O)C(=O)N[C@@H](C=O)[C@@H](O)[C@H](O)[C@H](O)CO [STREPTOZOCIN],3
16,O=C(O)c1ccc(-n2nc(-c3ccccc3O)nc2-c2ccccc2O)cc1 [DEFERASIROX],7
17,C[C@](N)(Cc1ccc(O)c(O)c1)C(=O)O [METHYLDOPA],8
18,CC(CCc1ccccc1)NCC(O)c1ccc(O)c(C(N)=O)c1 (configuration not stated) [LABETALOL],8
19,COc1ccc(CCN(C)CCCC(C#N)(c2ccc(OC)c(OC)c2)C(C)C)cc1OC (configuration not stated),4
20,CCCCCCCCCCC[C@@H](C[C@@H]1OC(=O)[C@H]1CCCCCC)OC(=O)[C@H](CC(C)C)NC=O [ORLISTAT],8
21,COc1cc(C)c(/C=C/C(C)=C/C=C/C(C)=C/C(=O)O)c(C)c1C [ACITRETIN],5
22,CS(=O)(=O)OCCCCOS(C)(=O)=O [BUSULFAN],8
23,Cc1oncc1C(=O)Nc1ccc(C(F)(F)F)cc1 [LEFLUNOMIDE],8
24,NC(=O)N1c2ccccc2C=Cc2ccccc21 [CARBAMAZEPINE],7
25,CN(Cc1cnc2nc(N)nc(N)c2n1)c1ccc(C(=O)N[C@@H](CCC(=O)O)C(=O)O)cc1 [METHOTREXATE],3
26,COC(c1ccccc1)(c1ccccc1)[C@H](Oc1nc(C)cc(C)n1)C(=O)O [AMBRISENTAN],5
27,CC1=C(CC(=O)O)c2cc(F)ccc2/C1=C\c1ccc([S+](C)[O-])cc1 (configuration not stated),8

# Same assay, conditions: Liver
row,SMILES,LTKB_BD DILI severity score
1,Nc1ccn([C@@H]2O[C@H](CO)[C@@H](O)[C@@H]2O)c(=O)n1 [CYTARABINE],3
2,Clc1ccccc1CN1CCc2sccc2C1 [TICLOPIDINE],4
3,CNCCC=C1c2ccccc2CCc2ccccc21 [NORTRIPTYLINE],8
4,Cc1ccc(C(=O)c2cc(O)c(O)c([N+](=O)[O-])c2)cc1 [TOLCAPONE],8
5,O=C(O)Cc1ccccc1Nc1c(Cl)cccc1Cl [DICLOFENAC],7
